Read-outs that look alike come from different tables or passages of the source.
What was measured:
[1] = system: P. falciparum D10-scDHODH; test: Inhibition of transgenic D10-scDHODH parasites, [3H]-hypoxanthine uptake; assay type: cell-based; details: for IC50: Plasmodium falciparum, D10, read-out: D10-scDHODH IC50; for efficacy against D10-scDHODH strain compared to D10 parent strain: dose-effect curves, FIG. 5
Procedure: (§1) P. falciparum strains D10, 3D7, HB3, and Dd2 were obtained from the Malaria Research and Reference Reagent Resource Center (Manassas, Va.). The parasite strains were maintained in vitro by method of Trager and Jensen. The inhibition of P. falciparum growth in the presence of drug was assessed by the relative reduction of [^3H]-hypoxanthine uptake as previously described. Inhibition data were fitted to Equation 1 using non-linear regression analysis except that the relative velocity of parasite growth was substituted for the rate of product formation.
Transgenic parasites expressing scDHODH were generated as described by Painter et al. except that full length scDHODH was cloned directly into the pGem3Z vector without a GFP tag. The resultant plasmid was transfected into ring stages of P. falciparum D10 by electroporation and maintained in culture using standard methods under the selection of WR99210.

P. falciparum D10 = test: Inhibition of in vitro P. falciparum culture, [3H]-hypoxanthine uptake, D10; assay type: cell-based; details: Plasmodium falciparum, D10, Erythrocyte, read-out: D10 IC50
Procedure: as §1

P. falciparum Dd2 = test: Inhibition of in vitro P. falciparum culture, [3H]-hypoxanthine uptake, Dd2; assay type: cell-based; details: Plasmodium falciparum, DD2, Erythrocyte, read-out: Dd2 IC50
Procedure: as §1

P. falciparum HB3 = test: Inhibition of in vitro P. falciparum culture, [3H]-hypoxanthine uptake, HB3; assay type: cell-based; details: Plasmodium falciparum, HB3, Erythrocyte, read-out: HB3 IC50
Procedure: as §1

P. falciparum 3D7 = test: Inhibition of in vitro P. falciparum culture, [3H]-hypoxanthine uptake, 3D7; assay type: cell-based; details: Plasmodium falciparum, 3D7, Erythrocyte, read-out: 3D7 IC50
Procedure: as §1

[2] = Normal Human Dermal Fibroblast Toxicity Screen; assay type: cell-based; details: human, normal human dermal fibroblasts; four days exposure, Alamar Blue; read-out: Dermal Fibroblast LC50
Procedure: The Normal Human Dermal Fibroblast Toxicity Screen Protocol is designed to determine whether compound mixtures, breakouts or single compounds are toxic to normal human dermal fibroblasts. The screen involves plating the dermal fibroblasts and then exposing them to the compounds for four days, then cell viability is measured using Alamar Blue reagent.
Harvested Dermal Fibroblast cells were diluted in Growth Media to 0.25 to 0.3×10^5 cells/mL. […] NOTE: One plate, the T=0 plate required that 20-30 wells be seeded and all the other plates had 96 wells seeded. Plates were incubated in 37° C./5% CO2 incubator for 24 hours.
Alamar Blue solution (25 μL/well) was added to the T=0 plate and the plate was agitated. The plate in 37° C./5% CO2 incubator was incubated for 3 hours, agitated the and the fluorescence was measured. 10% Tween 20 stock (10 μL) was added into rows A-D in column 1 (positive control). DMSO (0.5 μL) was added into column 2 (negative control). Compounds were placed into designated wells for desired testing as follows:
Plates were mixed on the shaker, then incubated in 37° C./5% CO2 incubator for 96 hours.
Alamar Blue solution (25 μL/well) was added to the plates containing the compounds, and the plates were agitated. The plates were incubated in 37° C./5% CO2 incubator for 3 hours, agitated and then the fluorescence was measured.

pfDHODH [3] = target: T1, pfDHODH (Plasmodium falciparum (isolate 3D7), UniProt Q08210); test: DHODH chromogen reduction (DCIP) assay, pfDHODH; assay type: biochemical, P. falciparum; details: 200 μM L-DHO; for inhibition at 50 µM: 50 μM inhibitor, 100 μM CoQD, 60 μM DCIP, read-out: % Inhibition of Product Formation Rate with 50 μM Inhibitor, CoQD; for IC50: pfDHODH IC50, DCIP assay, 18 μM CoQD, 100 μM DCIP, 20 nM enzyme
From the text: Type 2 DHODH activity was monitored with either the direct assay measuring the formation of orotate or via a chromogen reduction assay using DCIP. Although the extinction coefficient and absorption wavelength are preferable for the chromogen reduction assay, the inorganic electron acceptor DCIP can be utilized by DHODH as the final electron acceptor in lieu of CoQn when the endogenous substrate is at a low concentration. As such, the direct assay was used to measure the binding affinity of pfDHODH to CoQD and L-DHO. The enzymatic reaction was performed by varying the L-DHO concentration (1-400 μM) or CoQD concentration (1-200 μM) while keeping the other substrate constant and in excess.
Substrate specificity and enzyme inhibition data was analyzed with GraphPad Prism Version 4 for Windows (GraphPad Software). Kinetic constants were calculated by non-linear regression fitting of the data to the Michaelis-Menten equation [36]. IC50 values were determined by non-linear regression fitting of the data to Equation 1: […]

[4] = Renal Proximal Tubule Epithelial Cell Toxicity Screen; assay type: cell-based
Procedure: The Renal Proximal Tubule Epithelial Cell Toxicity Screen is designed to determine whether compound mixtures, breakouts or single compounds are toxic to normal renal epithelial cells. […] Basically, the screen consists of plating renal epithelial cells, exposing them to the desired compound(s) for 4 days and measuring cell viability using the Alamar Blue reagent.
Harvested Kidney Epithelial cells were diluted in REGM to 1.5×10^4 cells/mL. […] NOTE: One plate, the T=0 plate required that 20-30 wells be seeded, and all the other plates had 96 wells seeded. Plates were incubated in 37° C./5% CO2 incubator for 24 hours.
Alamar Blue solution (25 μL/well) was added to the T=0 plate and mixed. The plate was incubated in 37° C./5% CO2 incubator for 4 hours, mixed and then the fluorescence was measured. 10% Tween 20 stock (10 μL) was added into rows A-D in column 1 (positive control). DMSO (0.5 μL) was added into column 2 (negative control). Compounds were placed into designated wells for desired testing as follows:
Plates were mixed on the shaker, and then incubated in 37° C./5% CO2 incubator for 96 hours. Day 6:
Alamar Blue solution (25 μL/well) was added to the plates containing the compounds and mixed. Plates were incubated in 37° C./5% CO2 incubator for 4 hours, mixed and the fluorescence was measured.

pfDHODH [5] = target: T1, pfDHODH; test: pfDHODH activity with FeCy as electron acceptor; details: read-out: % Inhibition of Product Formation Rate with 50 μM Inhibitor, FeCy
Procedure: Inhibitors of DHODH, as classified by the chromogen reduction assay, were also evaluated for activity using FeCy as an electron acceptor. A final concentration of 5-50 nM DHODH, 200 μM L-DHO and 100 μM FeCy in Buffer C was used in this assay. Both the reduction of FeCy and the formation of orotate was monitored at 420 nm (ε420=1 mM^−1 cm^−1) and 290 nm (ε280=2 mM^−1 cm^−1), respectively, noting that two molecules of FeCy are reduced for one molecule of L-DHO. As with the previous assays, the reaction was performed at 25° C. and initiated with the addition of enzyme.

[6] = [3H]-hypoxanthine uptake by parasite infected erythrocytes

T1 sequence (Q08210 159-565 limits assumed): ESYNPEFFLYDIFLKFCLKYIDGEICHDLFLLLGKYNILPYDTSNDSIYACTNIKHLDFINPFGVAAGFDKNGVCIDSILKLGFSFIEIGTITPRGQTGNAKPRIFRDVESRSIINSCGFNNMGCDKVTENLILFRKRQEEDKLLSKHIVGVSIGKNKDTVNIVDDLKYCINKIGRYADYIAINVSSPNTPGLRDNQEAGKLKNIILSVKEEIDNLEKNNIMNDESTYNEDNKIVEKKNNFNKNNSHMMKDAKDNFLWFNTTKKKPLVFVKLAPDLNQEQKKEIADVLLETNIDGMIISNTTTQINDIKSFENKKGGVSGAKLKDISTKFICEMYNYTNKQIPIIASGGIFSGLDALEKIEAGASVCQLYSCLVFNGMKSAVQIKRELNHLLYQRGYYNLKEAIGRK

Structure (SMILES) | IC50 [1] [nM] | IC50 (P. falciparum D10; [6]) [nM] | IC50 (P. falciparum Dd2; [6]) [nM] | IC50 (P. falciparum HB3; [6]) [nM] | IC50 (P. falciparum 3D7; [6]) [nM] | CC50 at 96 h [2] [µM] | inhibition at 50 µM (pfDHODH [3]) [%] | IC50 (pfDHODH [3]) [nM] | CC50 at 96 h [4] [µM] | inhibition at 50 µM (pfDHODH [5]) [%] | efficacy against D10-scDHODH strain compared to D10 parent strain [1] | IC50 (P. falciparum D10) [nM] | IC50 (P. falciparum Dd2) [nM] | IC50 (P. falciparum HB3) [nM] | IC50 (P. falciparum 3D7) [nM]
CCc1nc(N)nc(N)c1-c1ccc(Cl)cc1 [Pyrimethamine, reference compound] | 47 | 55 | > 10000 | 940 | 36 |  |  |  |  |  |  |  |  |  | 
CCCCCC1CCCc2c1nc1ccccc1c2O (centres unmarked) [Compound 3] | > 10000 | 370 | 230 | 270 | 320 | > 62 | 100 | 340 ± 100 | > 62 | 17 |  |  |  |  | 
O=C1C(O)=C([C@H]2CC[C@H](c3ccc(Cl)cc3)CC2)C(=O)c2ccccc21 [Atovaquone, reference compound] | > 2000 | 0.42 | 0.2 | 0.22 | 0.18 |  |  |  |  |  | significantly reduced drug efficacy |  |  |  | 
Fc1cc(I)ccc1Nc1ccnc2cc(Cl)ccc12 [Compound 4] | 980 | 1000 | 2300 | 2200 | 1800 | 64 | 97 | 580 ± 100 | 49 | 7.7 |  |  |  |  | 
CCOC(=O)c1[nH]c(C)c(Cc2ccc(OCC)cc2)c1C [Compound 6] | > 10000 | 1200 | 440 | 690 | 770 | > 62 | 102 |  | > 62 | 4.8 |  |  |  |  | 
CCN(CC)CCCC(C)Nc1ccnc2cc(Cl)ccc12 (centres unmarked) [Chloroquine, reference compound] | 13 |  |  |  |  |  |  |  |  |  | equally sensitive | 15 | 180 | 8 | 10
Cc1ccccc1/C=C/c1cc(O)c2ccccc2n1 [Compound 2] | 8800 | 300 | 250 | 240 | 320 | > 62 | 94 | 930 ± 100 | > 62 | 1.2 |  |  |  |  | 

From patent US8703811B2, “Small molecule inhibitors of Plasmodium falciparum dihydroorotate dehydrogenase” (Genzyme Corporation, priority 2008, dated 2014)
